One data set addresses T1, human DGAT1 (Homo sapiens, UniProt O75907).
T1 construct: FLAG (N); made in house; host or cells: SF9 insect cells (pFastBac baculovirus); total cell membranes
T1 sequence (O75907 1-488): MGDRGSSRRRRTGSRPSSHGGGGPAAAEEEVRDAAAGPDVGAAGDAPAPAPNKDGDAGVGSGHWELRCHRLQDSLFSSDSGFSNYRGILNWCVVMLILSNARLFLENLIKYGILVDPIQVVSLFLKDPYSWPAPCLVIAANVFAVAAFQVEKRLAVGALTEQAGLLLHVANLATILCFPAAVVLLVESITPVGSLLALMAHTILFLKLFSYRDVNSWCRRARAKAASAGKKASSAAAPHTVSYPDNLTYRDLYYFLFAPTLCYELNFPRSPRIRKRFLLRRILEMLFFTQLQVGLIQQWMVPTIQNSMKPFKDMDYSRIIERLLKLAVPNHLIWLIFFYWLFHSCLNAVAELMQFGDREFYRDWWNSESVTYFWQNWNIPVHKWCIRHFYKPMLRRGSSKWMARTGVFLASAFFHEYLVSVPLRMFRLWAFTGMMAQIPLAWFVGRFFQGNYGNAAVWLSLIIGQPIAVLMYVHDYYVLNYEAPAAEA
The data set is described as follows: Inhibition of DGAT1 activity, FlashPlate assay with DGAT1 membrane preparations and substrate micelles. Type of data set: biochemical. The following applies: pIC50 = -logIC50, IC50 values expressed in M. In a few lines: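 FLAG-tagged human DGAT1 membranes (expressed in Sf9 cells) were incubated 120 min at 37° C. in 50 mM Tris-HCl pH 7.4 with 150 mM MgCl2, 1 mM EDTA, 0.2% BSA, 50 μM DAG micelles (PC/PS) and 8.4 μM [^3H]-oleoylCoA. The reaction was stopped with N-ethylmaleimide and read as FlashPlate radioluminescence. Responses were normalized to enzyme/no-enzyme controls to fit dose-response curves.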

For the compound `O=C(CCCc1ccccc1)Nc1ccc(N2CCN(C(=O)Nc3c(F)c(F)c(F)c(F)c3F)CC2)cc1` [Compound 87], the melting point was 181.2 °C. On human DGAT1, this compound had an IC50 of 3310 nM.

The compound `O=C(CCCc1ccccc1)Nc1ccc(N2CCN(C(=O)Nc3c(Cl)c(Cl)cc(Cl)c3Cl)CC2)cc1` [Compound 88] showed a melting point of 225.1 °C. The compound also had an IC50 against human DGAT1 of 479 nM.

Compound `CC(C)(C)c1ccccc1NC(=O)N1CCN(c2ccc(NC(=O)CCCc3ccccc3)cc2)CC1` [Compound 89] displayed a melting point of 227.2 °C. Moreover, 2190 nM corresponded to half-maximal inhibition at human DGAT1 (IC50).

The compound `CC(C)c1ccccc1NC(=O)N1CCN(c2ccc(NC(=O)CCCc3ccccc3)cc2)CC1` [Compound 90] showed a melting point of 214.2 °C. On human DGAT1, this compound had an IC50 of 589 nM.

Consider `CCOC(=O)c1ccccc1NC(=O)N1CCN(c2ccc(NC(=O)CCCc3ccccc3)cc2)CC1` [Compound 91], for which the melting point is 194.7 °C. Also, the midpoint of inhibition on human DGAT1, the IC50, lay at 5500 nM.

For `COC(=O)c1ccccc1NC(=O)N1CCN(c2ccc(NC(=O)CCCc3ccccc3)cc2)CC1` [Compound 92], the melting point came out at 165.4 °C. The same compound showed an IC50 on human DGAT1 of 7410 nM.

With `CCc1ccccc1NC(=O)N1CCN(c2ccc(NC(=O)CCCc3ccccc3)cc2)CC1` [Compound 93], the melting point is 189 °C. Further, at human DGAT1, the IC50 was 240 nM.

In turn, `O=C(CCCc1ccccc1)Nc1ccc(N2CCN(C(=O)Nc3ccccc3F)CC2)cc1` [Compound 94] returned a melting point of 177.3 °C. Further, at human DGAT1, the IC50 is 295 nM.

For the compound `O=C(CCCc1ccccc1)Nc1ccc(N2CCN(C(=O)Nc3ccccc3Br)CC2)cc1` [Compound 95], the melting point worked out at 147.4 °C. Moreover, on human DGAT1, 126 nM corresponded to half-maximal inhibition (IC50).

Consider `Cc1ccccc1NC(=O)N1CCN(c2ccc(NC(=O)CCCc3ccccc3)cc2)CC1` [Compound 96], for which the melting point was 164.7 °C. This compound gave an IC50 against human DGAT1 of 75.9 nM.

Turning to `O=C(CCN1CCCCC1)Nc1ccc(N2CCN(C(=O)Nc3c(Cl)cccc3Cl)CC2)cc1` [Compound 138], the melting point turned out to be 241.1 °C. The compound also showed a concentration for half-maximal inhibition (IC50) against human DGAT1 of 1320 nM.

The compound `CN(CC(=O)Nc1ccc(N2CCN(C(=O)Nc3c(Cl)cccc3Cl)CC2)cc1)C(=O)NC(C)(C)C` [Compound 165] yielded a melting point of 214 to 215 °C. At human DGAT1, this compound had an IC50 of 64.6 nM.

The compound `CC(C)C(=O)N(C)CC(=O)Nc1ccc(N2CCN(C(=O)Nc3c(Cl)cccc3Cl)CC2)cc1` [Compound 166] gave a melting point of 232 to 234 °C. The same compound showed an IC50 at human DGAT1 of 63.1 nM.

Take `CN(CC(=O)Nc1ccc(N2CCN(C(=O)Nc3c(Cl)cccc3Cl)CC2)cc1)C(=O)Cc1ccccc1` [Compound 171]: the melting point is 253 to 255 °C. In addition, inhibition at human DGAT1 was half-maximal at 28.2 nM (IC50).

Consider `CS(=O)(=O)N1CCN(CCC(=O)Nc2ccc(N3CCN(C(=O)Nc4c(Cl)cccc4Cl)CC3)cc2)CC1` [Compound 172], for which the melting point lay in the range of 250 to 252 °C. In addition, on human DGAT1, it took 603 nM to reach half-maximal inhibition (IC50).

As to `COc1ccc(CN(CCC(=O)Nc2ccc(N3CCN(C(=O)Nc4c(Cl)cccc4Cl)CC3)cc2)S(=O)(=O)c2ccccc2[N+](=O)[O-])cc1` [Compound 173], the melting point fell in the range of 197 to 199 °C. At human DGAT1, it took 34.7 nM to reach half-maximal inhibition (IC50).

As for `O=C(CCNCc1ccc(F)cc1)Nc1ccc(N2CCN(C(=O)Nc3c(Cl)cccc3Cl)CC2)cc1` [Compound 174], the melting point was 192 to 193 °C. Besides, the 50% inhibitory concentration (IC50) on human DGAT1 was 347 nM.

Regarding `O=C(CCN(Cc1ccc(F)cc1)S(=O)(=O)c1ccccc1[N+](=O)[O-])Nc1ccc(N2CCN(C(=O)Nc3c(Cl)cccc3Cl)CC2)cc1` [Compound 175], the melting point was in the range of 215 to 216 °C. The IC50 at human DGAT1 was 24 nM.

For `CC1CCCN1CCC(=O)Nc1ccc(N2CCN(C(=O)Nc3c(Cl)cccc3Cl)CC2)cc1` (stereo not shown) [Compound 176], the melting point lay in the range of 232 to 233 °C. On human DGAT1, this compound showed an IC50 of 6170 nM.

In the case of `COc1ccc(CNCC(=O)Nc2ccc(N3CCN(C(=O)Nc4c(Cl)cccc4Cl)CC3)cc2)cc1` [Compound 177], the melting point lay within 128 to 129 °C. The compound further gave an IC50 against human DGAT1 of 245 nM.

In the case of `O=C(CNCc1ccc(Cl)cc1)Nc1ccc(N2CCN(C(=O)Nc3c(Cl)cccc3Cl)CC2)cc1` [Compound 178], the melting point is 183 to 184 °C. At human DGAT1, this compound gave an IC50 of 75.9 nM.

`CC1CCCN1CC(=O)Nc1ccc(N2CCN(C(=O)Nc3c(Cl)cccc3Cl)CC2)cc1` (stereo not shown) [Compound 179]: the melting point lay within 220 to 222 °C. For the same compound, on human DGAT1, the IC50 was 1070 nM.

`O=C(CNC1CCCCC1)Nc1ccc(N2CCN(C(=O)Nc3c(Cl)cccc3Cl)CC2)cc1` [Compound 180]: the melting point lay in the range of 185 to 187 °C. For the same compound, 407 nM corresponded to half-maximal inhibition against human DGAT1 (IC50).

The compound `Cc1ccc(CNCC(=O)Nc2ccc(N3CCN(C(=O)Nc4c(Cl)cccc4Cl)CC3)cc2)c(C)c1` [Compound 181] gave a melting point of 163 to 165 °C. For the same compound, the IC50 on human DGAT1 is 75.9 nM.

`C=CCN(CCC(=O)Nc1ccc(N2CCN(C(=O)Nc3c(Cl)cccc3Cl)CC2)cc1)c1ccc(C)cc1C` [Compound 183]: the melting point lay in the range of 226 to 227 °C. This compound had a half-maximal inhibitory concentration (IC50) at human DGAT1 of 12.6 nM.

The compound `Cc1ccc(NCC(=O)Nc2ccc(N3CCN(C(=O)Nc4c(Cl)cc(O)cc4Cl)CC3)cc2)c(C)c1` [Compound 185] gave a melting point of 202 to 203 °C. The compound further gave a 50% inhibitory concentration (IC50) against human DGAT1 of 3.72 nM.

For the compound `C=CCN(CC(=O)Nc1ccc(N2CCN(C(=O)Nc3c(Cl)cc(OC)cc3OC)CC2)cc1)c1ccc(C)cc1C` [Compound 186], the melting point was in the range of 181 to 182 °C. The compound also showed an IC50 at human DGAT1 of 13.8 nM.

In turn, `COc1cc(Cl)c(NC(=O)N2CCN(c3ccc(NC(=O)CCCc4ccccc4)cc3)CC2)c(OC)c1` [Compound 188] returned a melting point of 208 to 210 °C. The compound also showed an IC50 against human DGAT1 of 74.1 nM.

As to `O=C(CCCc1ccccc1)Nc1ccc(N2CCN(C(=S)Nc3c(Cl)cccc3Cl)CC2)cc1` [Compound 189], the melting point worked out at 238.7 °C. The same compound showed a half-maximal inhibitory concentration (IC50) on human DGAT1 of 12 nM.

For the compound `O=C(CCc1ccncc1)Nc1ccc(N2CCN(C(=O)Nc3c(Cl)cccc3Cl)CC2)cc1` [Compound 193], the melting point fell in the range of 263 to 264 °C. In addition, the IC50 against human DGAT1 was 339 nM.

`O=C(CCCc1cccnc1)Nc1ccc(N2CCN(C(=O)Nc3c(Cl)cccc3Cl)CC2)cc1` [Compound 194] displayed a melting point of 233 to 234 °C. Moreover, the IC50 at human DGAT1 was 33.9 nM.

As to `CN(C)CCC(=O)Nc1ccc(N2CCN(C(=O)Nc3c(Cl)cccc3Cl)CC2)cc1` [Compound 196], the melting point lay within 194 to 196 °C. On human DGAT1, this compound had an IC50 of 6760 nM.

For the compound `O=C(CCCc1ccncc1)Nc1ccc(N2CCN(C(=O)Nc3c(Cl)cccc3Cl)CC2)cc1` [Compound 197], the melting point is 251 to 252 °C. The compound also gave an IC50 against human DGAT1 of 123 nM.

Turning to `O=C(CCc1cccnc1)Nc1ccc(N2CCN(C(=O)Nc3c(Cl)cccc3Cl)CC2)cc1` [Compound 198], the melting point lay in the range of 260 to 261 °C. Further, at human DGAT1, half-maximal inhibition (IC50) was put at 229 nM.

Consider `CN(C)CC(=O)Nc1ccc(N2CCN(C(=O)Nc3c(Cl)cccc3Cl)CC2)cc1` [Compound 200], for which the melting point was in the range of 245 to 246 °C. This compound showed an IC50 against human DGAT1 of 3630 nM.

Regarding `O=C(CN1CCCC1)Nc1ccc(N2CCN(C(=O)Nc3c(Cl)cccc3Cl)CC2)cc1` [Compound 201], the melting point is 214 to 216 °C. The same compound gave an IC50 at human DGAT1 of 1950 nM.

In turn, `C=CC(=O)Nc1ccc(N2CCN(C(=O)Nc3c(Cl)cccc3Cl)CC2)cc1` [Compound 202] came in with a melting point of 245 to 246 °C. The compound further had a half-maximal inhibitory concentration (IC50) on human DGAT1 of 107 nM.

As to `COc1cc(CNC(=O)c2ccc(N3CCN(C(=O)Cc4c(Cl)cccc4Cl)CC3)cc2)cc(OC)c1` [Compound 225], the melting point came out at 212.29 °C. In addition, on human DGAT1, it took 9.55 nM to reach half-maximal inhibition (IC50).

Consider `CCOC(=O)c1ccc(CCCCCNC(=O)c2ccc(N3CCN(C(=O)Nc4c(Cl)cc(CN5CCCC5)cc4Cl)CC3)cc2)cc1` [Compound 226], for which the melting point was found to be 180.97 °C. This compound gave an IC50 against human DGAT1 of 9.77 nM.

`COc1ccc(CNC(=O)c2ccc(N3CCN(C(=O)Nc4c(Cl)cc(CC(=O)N5CCN(C)CC5)cc4Cl)CC3)cc2)cc1` [Compound 228] showed a melting point of 220.01 °C. Half-maximal inhibition on human DGAT1 (IC50) was put at 19.1 nM.

For `O=C(NCc1cccc2ccccc12)c1ccc(N2CCN(C(=O)Cc3c(Cl)cccc3Cl)CC2)cc1` [Compound 229], the melting point was found to be 242.15 °C. At human DGAT1, half-maximal inhibition (IC50) was put at 30.9 nM.

`COc1ccc(CNC(=O)c2ccc(N3CCN(C(=O)Cc4c(Cl)cccc4Cl)CC3)cc2)c(OC)c1` [Compound 230] registered a melting point of 180.99 °C. Also, the IC50 at human DGAT1 was 42.7 nM.

`COc1ccc(CNC(=O)c2ccc(N3CCN(C(=O)Nc4c(Cl)cc(CN5CCCC5)cc4Cl)CC3)cc2)cc1` [Compound 232] registered a melting point of 222.04 °C. On human DGAT1, this compound showed an IC50 of 46.8 nM.

In turn, `Cc1ccccc1CNC(=O)c1ccc(N2CCN(C(=O)Cc3c(Cl)cccc3Cl)CC2)cc1` [Compound 233] had a melting point of 244.09 °C. The compound further gave a concentration for half-maximal inhibition (IC50) on human DGAT1 of 50.1 nM.

Source of the values: patent publication US8981094B2, “Piperidine/piperazine derivatives” (Janssen Pharmaceutica N.V., priority 2007, dated 2015).
